From patent US20100056515A1, “BENZIMIDAZOLE COMPOUNDS” (priority 2006, published 2010) come the findings set out here.

One series deals with T1, human CRF receptor (Homo sapiens, UniProt P34998).
T1 construct: expressed in transfected cells; host or cells: CHO cells (membrane fraction)
T1 sequence (P34998 24-415): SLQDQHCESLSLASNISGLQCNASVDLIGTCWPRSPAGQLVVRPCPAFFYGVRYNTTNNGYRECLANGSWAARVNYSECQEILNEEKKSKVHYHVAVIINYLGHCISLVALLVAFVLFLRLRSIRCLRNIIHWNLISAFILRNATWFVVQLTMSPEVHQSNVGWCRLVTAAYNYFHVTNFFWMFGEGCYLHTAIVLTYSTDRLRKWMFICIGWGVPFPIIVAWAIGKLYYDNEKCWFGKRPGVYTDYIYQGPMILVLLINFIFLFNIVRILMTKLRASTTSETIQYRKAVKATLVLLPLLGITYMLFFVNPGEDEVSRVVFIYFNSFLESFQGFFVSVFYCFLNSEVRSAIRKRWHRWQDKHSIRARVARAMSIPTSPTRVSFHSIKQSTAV
The series can be described thus: Measurement of CRF Binding Inhibitory Rate (receptor binding experiment with 125I-CRF). The settings on record: human CRF receptor expressing CHO cellular membrane fraction; 50 pM ovine 125I-CRF; 0.05 nM to 10 μM of compound; room temperature 1.5 hr; read-out: IC50 values (CRF binding inhibition). The method, then: Measurement of CRF Binding Inhibitory Rate
A receptor binding experiment was carried out using a human CRF receptor expressing CHO cellular membrane fraction and ovine CRF, [^125I]-tyr^0(^125I-CRF). 1000 nM of a test compound was incubated with 1 μg of human CRF receptor expressing CHO cellular membrane fraction and 50 pM of ^125I-CRF in a binding assay buffer (50 mM Tris-HCl, 5 mM EDTA, 10 mM MgCl2, 0.05% CHAPS, 0.1% BSA, 0.5 mM PMSF, 0.1 μg/mL pepstatin, 20 μg/mL leupeptin, pH 7.5). In addition, for measuring nonspecific binding (NSB), 0.1 μM unlabelled human Urocortin was incubated with 5 μg of human CRF receptor expressing CHO cellular membrane fraction and 50 pM of ^125I-CRF in a binding assay buffer. After a binding reaction was carried out at room temperature for 1.5 hr, the membrane was entrapped on a glass filter (UniFilter plate GF-C/Perkin Elmer) by suction filtration using a cell harvester (Perkin Elmer), and washed with ice-cooled 50 mM Tris-HCl (pH 7.5). After drying the glass filter, a liquid scintillation cocktail (Microscinti 0, Perkin Elmer) was added, and the radioactivity of ^125I-CRF remaining on a glass filter was measured using Topcount (Perkin Elmer).
(TB-SB)/(TB-NSB)×100 (SB: radioactivity when a compound is added, TB: maximum binding radioactivity, NSB: nonspecific binding radioactivity) were calculated to obtain binding inhibitory rates under the range of the presence from 0.05 nM to 10 μM of each compounds. The IC50 values were calculated by using GraphPad Prism software.

SMILES strings stand for the structures. Some results are limits rather than exact numbers.

The term IC50 denotes the concentration that gives 50% inhibition. As a reminder, the melting point is the temperature of the solid-liquid transition.

Consider `CCC(CC)c1ccc(Cl)c2nc(Nc3c(C)cc(SC)cc3OC)n(C)c12` [Example 45, 4-Chloro-7-(1-ethylpropyl)-N-[2-methoxy-6-methyl-4-(methylthio)phenyl]-1-methyl-1H-benzimidazol-2-amine], for which the melting point fell in the range of 223 to 225 °C. In addition, the IC50 at human CRF receptor was below 1000 nM.
Turning to `CCC(CC)c1ccc(OC)c2nc(Oc3c(C)cc(OC(F)(F)F)cc3CN(C)C)n(C)c12.Cl` [Example 15, 1-[2-{[7-(1-Ethylpropyl)-4-methoxy-1-methyl-1H-benzimidazol-2-yl]oxy}-3-methyl-5-(trifluoromethoxy)phenyl]-N,N-dimethylmethanamine Hydrochloride], the melting point lay in the range of 92 to 94 °C. The IC50 at human CRF receptor is below 1000 nM.
Consider `CCC(CC)c1ccc(Cl)c2nc(Nc3c(C)cc(Cl)cc3[S+](C)[O-])n(C)c12` (stereo not drawn) [Example 51, 4-Chloro-N-[4-chloro-2-methyl-6-(methylsulfinyl)phenyl]-7-(1-ethylpropyl)-1-methyl-1H-benzimidazol-2-amine], for which the melting point was in the range of 212 to 213 °C. Further, the half-maximal inhibitory concentration (IC50) at human CRF receptor was below 1000 nM.
`CCC(CC)c1ccc(Cl)c2nc(Oc3c(Cl)cc(Cl)cc3N3CCCC3)n(C)c12` [Example 29, 4-Chloro-2-(2,4-dichloro-6-pyrrolidin-1-ylphenoxy)-7-(1-ethylpropyl)-1-methyl-1H-benzimidazole] yielded a melting point of 209 to 210 °C. Further, the half-inhibitory concentration (IC50) on human CRF receptor is below 1000 nM.
Take `CCC(CC)c1ccc(OC)c2nc(Oc3ccc(C(F)(F)F)cc3N(C)C)n(C)c12` [Example 12, 2-{[7-(1-Ethylpropyl)-4-methoxy-1-methyl-1H-benzimidazol-2-yl]oxy}-N,N-dimethyl-5-(trifluoromethyl)aniline]: the melting point was in the range of 131 to 133 °C. Also, the concentration for half-maximal inhibition (IC50) on human CRF receptor was below 1000 nM.
Regarding `CCC(CC)c1ccc(OC)c2nc(Oc3c(Cl)cc(Cl)cc3CN(C)C)n(C)c12.Cl` [Example 77, 1-(3,5-Dichloro-2-{[7-(1-ethylpropyl)-4-methoxy-1-methyl-1H-benzimidazol-2-yl]oxy}phenyl)-N,N-dimethylmethanamine], the melting point is 169 to 170 °C. The IC50 on human CRF receptor was below 1000 nM.
Molecule `CCC(CO)c1ccc(Cl)c2nc(Oc3c(C)cc(Cl)cc3Cl)n(C)c12` (stereo not drawn) [Example 94, 2-[4-Chloro-2-(2,4-dichloro-6-methylphenoxy)-1-methyl-1H-benzimidazol-7-yl]butan-1-ol] came in with a melting point of 208 to 209 °C. Also, on human CRF receptor, the IC50 is below 1000 nM.
The corresponding values for `CCC(CC)c1ccc(Cl)c2nc(Oc3c(C)cc(S(C)(=O)=O)cc3Cl)n(C)c12` [Example 38, 4-Chloro-2-[2-chloro-6-methyl-4-(methylsulfonyl)phenoxy]-7-(1-ethylpropyl)-1-methyl-1H-benzimidazole] are 199 to 200 °C and below 1000 nM.
On to `CCC(CC)c1ccc(Cl)c2nc(Oc3c(Cl)cc(Cl)cc3C#N)n(C)c12` [Example 31, 3,5-Dichloro-2-{[4-chloro-7-(1-ethylpropyl)-1-methyl-1H-benzimidazol-2-yl]oxy}benzonitrile], for which the melting point lay within 155 to 156 °C. Further, the IC50 at human CRF receptor was below 1000 nM.
Turning to `CCC(CC)c1ccc(OC)c2nc(Oc3c(Cl)cc(Cl)cc3N(C)C)n(C)c12` [Example 7, 3,5-Dichloro-2-{[7-(1-ethylpropyl)-4-methoxy-1-methyl-1H-benzimidazol-2-yl]oxy}-N,N-dimethylaniline], the melting point is 173 to 175 °C. Also, the IC50 on human CRF receptor is below 1000 nM.
`CCC(CC)c1ccc(Cl)c2nc(Oc3c(C)cc(C(C)=O)cc3Cl)n(C)c12` [Example 35, 1-(3-Chloro-4-{[4-chloro-7-(1-ethylpropyl)-1-methyl-1H-benzimidazol-2-yl]oxy}-5-methylphenyl)ethanone] showed a melting point of 160 to 161 °C. For the same molecule, the half-maximal inhibitory concentration (IC50) at human CRF receptor is below 1000 nM.
The molecule `CCC(CC)c1cccc2nc(Oc3c(C)cc(Cl)cc3Cl)n(C)c12` [Example 91, 2-(2,4-Dichloro-6-methylphenoxy)-7-(1-ethylpropyl)-1-methyl-1H-benzimidazole] gave a melting point of 91 to 92 °C. The concentration for half-maximal inhibition (IC50) at human CRF receptor was below 1000 nM.
